Structures can show the parent of a compound that is named as a salt.
Test system: eNOS promoter
Experiment: Activation of eNOS transcription (eNOS promoter-luciferase reporter gene assay)
Assay type: cell-based
Conditions: human endothelial cell line stably transfected with eNOS promoter-luciferase construct; 18 h incubation; determined graphically; read-out: EC50 values of transcription induction ratios (TIR)
Method: Determination of the Biological Activity A) Activation of eNOS Transcription
Activation of eNOS transcription was measured as described in detail by Li et al., “Activation of protein kinase C alpha and/or epsilon enhances transcription of the human endothelial nitric oxide synthase gene”, Mol. Pharmacol. 53 (1998) 630. Briefly, a 3.5 kB long fragment 5′ of the starting codon of the eNOS gene was cloned, sequenced and cloned in firefly luciferase expression plasmids to monitor activation of the eNOS promoter by reporter gene activity. A human endothelial cell line stable transfected and expressing this promoter-reporter construct was used for compound testing. Cells were incubated for 18 h with the compounds.
All compounds were dissolved in sterile dimethyl sulfoxide (DMSO). A final concentration of 0.5% DMSO in complete medium was allowed. Induction of reporter gene expression in these cells was measured using a standard luciferase assay system (Promega, Cat. No. E150) according to the manufacturer's instructions. Luciferase induction in cells incubated with compounds were compared to those incubated with solvent alone. The ratio of both activities (transcription induction ratio, TIR) was plotted as a function of compound concentration. Typically, TIR values started at low concentrations at a ratio of 1, indicating no compound effect, and extended up to a maximum TIR value TIR(max) which indicates the increase of the eNOS transcription. EC50 values of transcription induction ratios as a function of compound concentration were determined graphically.

`CC(C)(C)NC(=O)CSc1nc(-c2ccc(F)cc2)cs1` [Example 100, N-tert-Butyl-2-[4-(4-Fluoro-phenyl)-thiazol-2-ylsulfanyl]-acetamide] and `O=C(CSc1nc(-c2ccc(F)cc2)cs1)N1CCCC1` [Example 98, 2-[4-(4-Fluoro-phenyl)-thiazol-2-ylsulfanyl]-1-(pyrrolidin-1-yl)-ethanone] fall in the same range of EC50: 0.5 to 5 µM for the first, 0.5 to 5 µM for the second.

Compared with `O=C(CNc1nc(-c2ccc(F)cc2)cs1)N1CCCC1` [Example 69, 2-[4-(4-Fluoro-phenyl)-thiazol-2-ylamino]-1-(pyrrolidin-1-yl)-ethanone trifluoroacetic acid salt], `O=C(CNc1nc(-c2ccc(F)cc2)cs1)N1CCCCC1` [Example 67, 2-[4-(4-Fluoro-phenyl)-thiazol-2-ylamino]-1-(piperidin-1-yl)-ethanone trifluoroacetic acid salt] is higher in EC50: under 0.5 µM for the first, 0.5 to 5 µM for the second.

First: O=C(CNc1ccc(-c2ccccc2F)nc1)N1CCCCC1 [Example 89, 2-[6-(2-Fluoro-phenyl)-pyridin-3-ylamino]-1-(piperidin-1-yl)-ethanone trifluoroacetic acid salt]
Second: Nc1nc(CCC(=O)N2CCCCC2)ccc1-c1ccccc1 [Example 79, 3-(6-Amino-5-phenyl-pyridin-2-yl)-1-(piperidin-1-yl) -propanone]
The EC50 of the first is higher: 0.5 to 5 µM for the first, under 0.5 µM for the second.

Compared with `O=C(CCc1ccc(-c2ccc(OC(F)(F)F)cc2)s1)Nc1ccccc1` [Example 10, N-Phenyl-3-[5-(4-trifluoromethoxy-phenyl)-thiophen-2-yl]-propionamide], `O=C(CCc1ccc(-c2ccc(OC(F)(F)F)cc2)s1)NCC1CC1` [Example 7, N-Cyclopropylmethyl-3-[5-(4-trifluoromethoxy-phenyl)-thiophen-2-yl]-propionamide] is lower in EC50: 0.5 to 5 µM for the first, under 0.5 µM for the second. The second is the more potent here.

`CC(=O)N1CCN(C(=O)CCc2ccc(-c3ccccc3F)s2)CC1` [Example 20, 1-(4-Acetyl-piperazin-1-yl)-3-[5-(2-fluoro-phenyl) -thiophen-2-yl]-propan-1-one] and `O=C(CCc1ccc(-c2ccc(OC(F)(F)F)cc2)s1)NCC(F)(F)F` [Example 8, N-(2,2,2-Trifluoro-ethyl)-3-[5-(4-trifluoromethoxy-phenyl) -thiophen-2-yl]-propionamide] fall in the same range of EC50: 0.5 to 5 µM for the first, 0.5 to 5 µM for the second.

`O=C(COc1ccc(-c2ccccc2F)nc1)Nc1nccs1` [Example 78, 2-[6-(2-Fluoro-phenyl)-pyridin-3-yloxy]-N-(thiazol-2-yl) -acetamide trifluoroacetic acid salt] and `O=C(COc1ccc(-c2ccccc2F)nc1)Nc1ccccn1` [Example 77, 2-[6-(2-Fluoro-phenyl)-pyridin-3-yloxy]-N-(pyridin-2-yl) -acetamide trifluoroacetic acid salt] cannot be ordered by EC50: under 0.5 µM for the first, under 0.5 µM for the second.
